Source: paper PMC10245121, “GH20 and GH84 β-N-acetylglucosaminidases with different linkage specificities underpin mucin O-glycan breakdown capability of Bifidobacterium bifidum” (The Journal of Biological Chemistry, 2023)

What was measured:
BbhV = biological target: T1, BbhV (Bifidobacterium bifidum, UniProt A0ABN5UYD8); assay: initial velocities, p-nitrophenolate release ([…] nm), Michaelis-Menten fit; format: biochemical; details: 0.1-5.0 mM substrate; McIlvaine buffer, pH optimum 5.5 (pH and temperature of the kinetics not stated)
T1 construct: gene BBBF_1623; residues 35-1111 of 1139 aa, signal peptide and C-terminal TM region removed, C-terminal His6 tag kept; E. coli; 171 kDa by SEC, dimer

[1] = biological target: BbhV (GH84 β-N-acetylglucosaminidase of Bifidobacterium bifidum JCM 1254), residues 35-1111, C-terminal His6 (Bifidobacterium bifidum JCM 1254); assay: SEC; Superdex 200 Increase 10/300 GL; 10 mM Tris-HCl pH 8.0, 150 mM NaCl; native mass estimated against thyroglobulin, ferritin, aldolase and conalbumin standards

T1 sequence (A0ABN5UYD8 entry or part of it): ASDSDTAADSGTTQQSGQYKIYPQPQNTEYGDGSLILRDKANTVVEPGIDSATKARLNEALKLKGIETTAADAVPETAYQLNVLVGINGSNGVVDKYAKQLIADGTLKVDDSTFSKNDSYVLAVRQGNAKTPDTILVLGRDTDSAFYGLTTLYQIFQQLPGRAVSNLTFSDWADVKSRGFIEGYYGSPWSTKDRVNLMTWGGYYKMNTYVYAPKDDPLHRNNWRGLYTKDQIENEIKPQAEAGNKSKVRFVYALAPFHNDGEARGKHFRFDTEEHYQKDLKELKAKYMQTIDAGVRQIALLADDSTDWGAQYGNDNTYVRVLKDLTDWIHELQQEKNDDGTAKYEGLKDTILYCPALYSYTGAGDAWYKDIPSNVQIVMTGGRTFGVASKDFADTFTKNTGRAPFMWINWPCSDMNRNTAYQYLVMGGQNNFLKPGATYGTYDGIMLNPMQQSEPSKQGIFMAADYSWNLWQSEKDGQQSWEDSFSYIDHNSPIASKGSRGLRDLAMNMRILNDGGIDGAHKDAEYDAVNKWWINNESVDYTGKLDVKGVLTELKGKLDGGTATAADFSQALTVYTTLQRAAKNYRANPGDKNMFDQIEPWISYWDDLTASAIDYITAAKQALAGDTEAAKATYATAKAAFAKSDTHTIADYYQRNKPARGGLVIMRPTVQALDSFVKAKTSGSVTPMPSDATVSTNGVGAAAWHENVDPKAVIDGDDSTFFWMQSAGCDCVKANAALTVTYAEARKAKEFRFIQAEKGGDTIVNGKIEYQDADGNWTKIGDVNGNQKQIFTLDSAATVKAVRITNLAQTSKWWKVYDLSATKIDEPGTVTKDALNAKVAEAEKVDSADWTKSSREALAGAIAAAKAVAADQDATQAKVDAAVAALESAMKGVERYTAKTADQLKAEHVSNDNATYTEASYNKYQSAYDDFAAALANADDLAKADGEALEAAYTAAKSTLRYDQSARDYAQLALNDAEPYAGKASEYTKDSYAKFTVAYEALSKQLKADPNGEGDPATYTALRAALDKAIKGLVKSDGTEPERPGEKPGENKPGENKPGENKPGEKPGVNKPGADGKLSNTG

| Km (BbhV) | stoichiometry N [1] | Compound |
| --- | --- | --- |
| 1000 µM | – | CC(=O)N[C@H]1[C@H](Oc2ccc([N+](=O)[O-])cc2)O[C@H](CO)[C@@H](O)[C@@H]1O [GlcNAcβ-pNP] |
| – | 2 | BbhV (GH84 β-N-acetylglucosaminidase of Bifidobacterium bifidum JCM 1254), residues 35-1111, C-terminal His6 (enzyme) |
